Like-named read-outs stand apart in the source and are kept apart here. Where a SMILES comes first, the peptide text is derived from it. [ ]: non-standard residue; d: D form. The star is where a group is joined. ξ: configuration not given here. X1 = O=C(O)CC[C@H](NC(=O)N[C@@H](CCCCNC(=O)CCCCCCC(=O)*)C(=O)O)C(=O)O; DOTA = O=C(O)CN1CCN(CC(=O)O)CCN(CC(=O)*)CCN(CC(=O)O)CC1; ξF = NC(Cc1ccccc1)C(=O)O
How the values were obtained:
PSMA = PSMA (Homo sapiens, UniProt Q04609); assay: PSMA inhibitory activities, fluorescence-based assay (Example 3); assay type: biochemical
PSMA, sequence (Q04609 whole entry): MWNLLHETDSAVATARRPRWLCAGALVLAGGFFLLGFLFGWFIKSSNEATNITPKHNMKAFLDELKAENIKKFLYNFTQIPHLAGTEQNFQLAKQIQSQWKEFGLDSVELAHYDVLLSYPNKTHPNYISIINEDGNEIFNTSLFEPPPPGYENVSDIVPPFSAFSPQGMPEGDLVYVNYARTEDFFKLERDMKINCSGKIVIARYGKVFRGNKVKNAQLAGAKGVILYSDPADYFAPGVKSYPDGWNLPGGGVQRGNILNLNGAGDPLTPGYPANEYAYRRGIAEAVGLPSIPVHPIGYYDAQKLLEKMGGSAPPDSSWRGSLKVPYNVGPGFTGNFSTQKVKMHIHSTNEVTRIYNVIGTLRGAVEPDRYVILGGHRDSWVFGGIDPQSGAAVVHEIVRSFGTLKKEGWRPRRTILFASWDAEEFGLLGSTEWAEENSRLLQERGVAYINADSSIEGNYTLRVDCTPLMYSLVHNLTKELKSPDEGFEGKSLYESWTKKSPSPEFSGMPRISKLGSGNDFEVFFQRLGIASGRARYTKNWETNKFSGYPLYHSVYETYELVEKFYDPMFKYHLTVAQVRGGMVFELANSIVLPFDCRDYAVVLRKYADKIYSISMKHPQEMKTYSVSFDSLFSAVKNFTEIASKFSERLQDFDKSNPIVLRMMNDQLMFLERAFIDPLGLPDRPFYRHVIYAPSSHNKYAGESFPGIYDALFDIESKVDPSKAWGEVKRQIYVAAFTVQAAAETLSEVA
Method: PSMA inhibitory activities were determined using a fluorescence-based assay (Banerjee, Pullambhatla, Byun, et al., 2011). Enzyme inhibitory constants (Ki values) were generated using the Cheng-Prusoff conversion (Cheng and Prusoff, 1973). Sub-lines of the androgen independent PC-3 human prostate cancer xenograft were used (Banerjee, Pullambhatla, Byun, et al., 2011). Those sub-lines have been modified to express high (PC-3 PIP) or naturally produce low (PC-3 flu) levels of PSMA (Dr. Warren Heston, Cleveland Clinic, Cleveland, Ohio).

[1] = test system: PC-3 PIP and PC-3 flu tumors

O=C(O)CC[C@H](NC(=O)N[C@@H](CCCCNC(=O)CCCCCCC(=O)NCCCC[C@H](NC(=O)C(Cc1ccccc1)NC(=O)C(Cc1ccccc1)NC(=O)C(Cc1ccccc1)NC(=O)CN1CCN(CC(=O)O)CCN(CC(=O)O)CCN(CC(=O)O)CC1)C(=O)O)C(=O)O)C(=O)O (stereo partly shown) [Compound 5]
Ki (PSMA): 3.12 nM

O=C(O)CC[C@H](NC(=O)N[C@@H](CCCCNC(=O)CCCCCCC(=O)NCCCCNC(=S)Nc1ccc(CC2CN(CC(=O)O)CCN(CC(=O)O)CCN(CC(=O)O)CCN2CC(=O)O)cc1)C(=O)O)C(=O)O (stereo partly drawn) [Compound 6, (21S,25S)-8,15,23-trioxo-1-((4-((1,4,7,10-tetrakis(carboxymethyl)-1,4,7,10-tetraazacyclododecan-2-yl)methyl)phenyl)amino)-1-thioxo-2,7,16,22,24-pentaazaheptacosane-21,25,27-tricarboxylic acid]
Ki (PSMA): 1.8 nM

O=C([O-])CN1CCN(CC(=O)[O-])CCN(CC(=O)NC(Cc2ccccc2)C(=O)NC(Cc2ccccc2)C(=O)N[C@@H](CCCCNC(=O)CCCCCCC(=O)NCCCC[C@H](NC(=O)N[C@@H](CCC(=O)O)C(=O)O)C(=O)O)C(=O)O)CCN(CC(=O)[O-])CC1.[Y+3] (stereo partly shown) [^89Y-4]
Ki (PSMA): 0.36 nM

O=C([O-])CN1CCN(CC(=O)[O-])CCN(CC(=O)NC(Cc2ccccc2)C(=O)NC(Cc2ccccc2)C(=O)NC(Cc2ccccc2)C(=O)N[C@@H](CCCCNC(=O)CCCCCCC(=O)NCCCC[C@H](NC(=O)N[C@@H](CCC(=O)O)C(=O)O)C(=O)O)C(=O)O)CCN(CC(=O)[O-])CC1.[Y+3] (stereo partly shown) [^89Y-5] ({DOTA}-[ξF][ξF][ξF]K(X1)-OH)
Ki (PSMA): 0.1 nM

O=C([O-])CN1CCN(CC(=O)O)CCN(CC(=O)[O-])CC(Cc2ccc(NC(=S)NCCCCNC(=O)CCCCCCC(=O)NCCCC[C@H](NC(=O)N[C@@H](CCC(=O)O)C(=O)O)C(=O)O)cc2)N(CC(=O)[O-])CC1.[Y+3] (stereo partly shown) [^89Y-6]
Ki (PSMA): 2.99 nM

NC(=O)CN1CCN(CC(N)=O)CCN(CC(N)=O)C(Cc2ccc(NC(=S)NCCCCNC(=O)CCCCCCC(=O)NCCCC[C@H](NC(=O)N[C@@H](CCC(=O)O)C(=O)O)C(=O)O)cc2)CN(CC(N)=O)CC1.[203Pb+2] (stereo partly shown) [^203Pb-SR-IX-11]
PIP/flu ratio ([1]; 2 H): 114
Tissue biodistribution, Blood ([1]; 2 H): 0.07 ± 0.01
Tissue biodistribution, PC-3 PIP ([1]; 2 H): 21.64 ± 1.23
Tissue biodistribution, PC-3 flu ([1]; 2 H): 0.19 ± 0.04
Tissue biodistribution, Sm intestine ([1]; 2 H): 0.25 ± 0.15
Tissue biodistribution, bladder ([1]; 2 H): 8.64 ± 0.77
Tissue biodistribution, fat ([1]; 2 H): 1.54 ± 1.64
Tissue biodistribution, heart ([1]; 2 H): 0.07 ± 0.01
Tissue biodistribution, kidney ([1]; 2 H): 3.61 ± 0.81
Tissue biodistribution, liver ([1]; 2 H): 0.21 ± 0.01
Tissue biodistribution, lung ([1]; 2 H): 0.24 ± 0.03
Tissue biodistribution, muscle ([1]; 2 H): 0.78 ± 0.83
Tissue biodistribution, pancreas ([1]; 2 H): 0.06 ± 0.00
Tissue biodistribution, salivary gland ([1]; 2 H): 0.35 ± 0.10
Tissue biodistribution, spleen ([1]; 2 H): 0.25 ± 0.1
Tissue biodistribution, stomach ([1]; 2 H): 0.12 ± 0.00

O=C(O)CC[C@H](NC(=O)N[C@@H](CCCCNC(=O)CCCCCCC(=O)NCCCCNC(=S)Nc1ccc(CC2CN(CC(=O)O)CCN(CC(=O)O)CCN(CC(=O)O)CCN2CC(=O)O)cc1)C(=O)O)C(=O)O.[203Pb+2] (stereo partly shown) [^203Pb-SR-VI-71]
PIP/flu ratio ([1]; 1 H): 98
Tissue biodistribution, Blood ([1]; 1 H): 0.60 ± 0.05
Tissue biodistribution, PC-3 PIP ([1]; 1 H): 41.88 ± 7.60
Tissue biodistribution, PC-3 flu ([1]; 1 H): 0.43 ± 0.11
Tissue biodistribution, Sm intestine ([1]; 1 H): 0.31 ± 0.05
Tissue biodistribution, bladder ([1]; 1 H): 5.96 ± 2.24
Tissue biodistribution, fat ([1]; 1 H): 0.77 ± 0.29
Tissue biodistribution, heart ([1]; 1 H): 0.30 ± 0.03
Tissue biodistribution, kidney ([1]; 1 H): 75.18 ± 9.94
Tissue biodistribution, liver ([1]; 1 H): 1.09 ± 0.07
Tissue biodistribution, lung ([1]; 1 H): 1.20 ± 0.19
Tissue biodistribution, muscle ([1]; 1 H): 0.22 ± 0.14
Tissue biodistribution, pancreas ([1]; 1 H): 0.49 ± 0.09
Tissue biodistribution, salivary gland ([1]; 1 H): 1.78 ± 0.69
Tissue biodistribution, spleen ([1]; 1 H): 5.07 ± 1.68
Tissue biodistribution, stomach ([1]; 1 H): 0.30 ± 0.04
PIP/flu ratio ([1]; 2 H): 130
Tissue biodistribution, Blood ([1]; 2 H): 0.31 ± 0.04
Tissue biodistribution, PC-3 PIP ([1]; 2 H): 38.14 ± 6.30
Tissue biodistribution, PC-3 flu ([1]; 2 H): 0.29 ± 0.14
Tissue biodistribution, Sm intestine ([1]; 2 H): 0.23 ± 0.04
Tissue biodistribution, bladder ([1]; 2 H): 10.40 ± 3.21
Tissue biodistribution, fat ([1]; 2 H): 0.31 ± 0.22
Tissue biodistribution, heart ([1]; 2 H): 0.14 ± 0.06
Tissue biodistribution, kidney ([1]; 2 H): 39.35 ± 7.28
Tissue biodistribution, liver ([1]; 2 H): 1.01 ± 0.21
Tissue biodistribution, lung ([1]; 2 H): 0.64 ± 0.14
Tissue biodistribution, muscle ([1]; 2 H): 0.22 ± 0.07
Tissue biodistribution, pancreas ([1]; 2 H): 0.29 ± 0.05
Tissue biodistribution, salivary gland ([1]; 2 H): 0.93 ± 0.07
Tissue biodistribution, spleen ([1]; 2 H): 1.59 ± 0.58
Tissue biodistribution, stomach ([1]; 2 H): 0.15 ± 0.03
PIP/flu ratio ([1]; 4 H): 178
Tissue biodistribution, Blood ([1]; 4 H): 0.24 ± 0.02
Tissue biodistribution, PC-3 PIP ([1]; 4 H): 34.74 ± 7.37
Tissue biodistribution, PC-3 flu ([1]; 4 H): 0.20 ± 0.06
Tissue biodistribution, Sm intestine ([1]; 4 H): 0.15 ± 0.04
Tissue biodistribution, bladder ([1]; 4 H): 1.94 ± 0.49
Tissue biodistribution, fat ([1]; 4 H): 0.31 ± 0.18
Tissue biodistribution, heart ([1]; 4 H): 0.09 ± 0.01
Tissue biodistribution, kidney ([1]; 4 H): 22.75 ± 6.22
Tissue biodistribution, liver ([1]; 4 H): 0.92 ± 0.09
Tissue biodistribution, lung ([1]; 4 H): 0.28 ± 0.04
Tissue biodistribution, muscle ([1]; 4 H): 0.06 ± 0.02
Tissue biodistribution, pancreas ([1]; 4 H): 0.24 ± 0.05
Tissue biodistribution, salivary gland ([1]; 4 H): 0.29 ± 0.02
Tissue biodistribution, spleen ([1]; 4 H): 0.72 ± 0.16
Tissue biodistribution, stomach ([1]; 4 H): 0.13 ± 0.03
PIP/flu ratio ([1]; 24 H): 194
Tissue biodistribution, Blood ([1]; 24 H): 0.21 ± 0.02
Tissue biodistribution, PC-3 PIP ([1]; 24 H): 27.92 ± 7.01
Tissue biodistribution, PC-3 flu ([1]; 24 H): 0.14 ± 0.01
Tissue biodistribution, Sm intestine ([1]; 24 H): 0.04 ± 0.03
Tissue biodistribution, bladder ([1]; 24 H): 0.31 ± 0.16
Tissue biodistribution, fat ([1]; 24 H): 0.05 ± 0.06
Tissue biodistribution, heart ([1]; 24 H): 0.07 ± 0.01
Tissue biodistribution, kidney ([1]; 24 H): 7.01 ± 0.80
Tissue biodistribution, liver ([1]; 24 H): 0.64 ± 0.04
Tissue biodistribution, lung ([1]; 24 H): 0.16 ± 0.01
Tissue biodistribution, muscle ([1]; 24 H): 0.04 ± 0.03
Tissue biodistribution, pancreas ([1]; 24 H): 0.09 ± 0.06
Tissue biodistribution, salivary gland ([1]; 24 H): 0.10 ± 0.05
Tissue biodistribution, spleen ([1]; 24 H): 0.24 ± 0.02
Tissue biodistribution, stomach ([1]; 24 H): 0.07 ± 0.01
